# Results from PMC12040169 (PLOS Biology, 2025).
# Assay: in vitro
# Conditions: human, hela cells, % viability
row,SMILES,"viability at 28.5 h, 10 µM"
1,O=C(NCC(O)c1ccc2ccccc2c1)c1cnc(-c2ccccc2)c(-c2ccncc2)c1 (centres unmarked) [CBK037438],91%
2,CC(C)[C@@H](CO)Nc1nc(-c2ccc3ccccc3c2)cn2ccnc12 [CBK037445],85.8%
3,OCc1cccc(-c2nccnc2NCc2ccncc2)c1 [CBK037446],105%
4,Brc1cn2ccnc2c(Nc2ccc3[nH]ccc3c2)n1 [CBK037449],102%
5,COc1cccc(CNc2nccnc2-c2ccc(S(C)(=O)=O)cc2)c1OC [CBK037452],104%
6,Cc1cccc(CNc2nccnc2-c2ccncc2)c1 [CBK037453],99.3%
7,Cc1cccc(-c2ncc(C(=O)NCCCN3CCCC3=O)cc2-c2ccco2)c1 [CBK037455],96.5%
8,O=C(Nc1ccc(OC(F)(F)F)cc1)c1cnc(-c2ccc(Cl)cc2)c(-c2ccco2)c1 [CBK037456],106%
9,O=C(Nc1ccc(CCO)cc1)c1cnc(-c2ccc(Cl)cc2)c(-c2ccco2)c1 [CBK037457],97.5%
10,CCC(CO)NC(=O)c1cnc(-c2cccc(C)c2)c(-c2ccc(OC)cc2)c1 (centres unmarked) [CBK037460],101%
11,CCC(CO)Nc1nc(-c2ccc(O)cc2)cn2ccnc12 (centres unmarked) [CBK037471],106%
12,Clc1ccccc1-c1nccnc1NCc1ccncc1 [CBK037472],89.2%
13,CCN(CCO)c1ccc(Nc2nc(Br)cn3ccnc23)cc1 [CBK037475],98.9%
14,O=C(Nc1ccc(OC(F)(F)F)cc1)c1cnc(-c2ccc(Cl)cc2)c(-c2ccc(O)cc2)c1 [CBK037485],109%
15,COc1ccc(-c2cc(C(=O)Nc3ccc(F)c(Cl)c3)cnc2-c2cccc(C)c2)cc1 [CBK037488],93.3%
16,COc1ccc(-c2cc(C(=O)NCCc3ccncc3)cnc2-c2cccc(C)c2)cn1 [CBK037489],99.1%
17,O=C(Nc1ccc(NC(=O)c2ccccc2O)cc1)c1cnc(-c2ccccc2)c(-c2ccncc2)c1 [CBK037490],80.5%
18,CN(C)CCN1CCN(c2nc(Br)cn3ccnc23)CC1 [CBK037501],91.3%
19,CN(Cc1ccccc1)c1nccnc1-c1ccccc1Cl [CBK037502],103%
20,CC(=O)c1ccc(-c2nccnc2N(C)Cc2ccccc2)s1 [CBK037504],112%
21,CS(=O)(=O)CCNC(=O)c1cnc(-c2ccc(F)cc2)c(-c2ccco2)c1 [CBK037505],93.1%
22,COc1ncc(-c2nccnc2NCc2cccc(OC)c2OC)c(OC)n1 [CBK037506],76.9%

row,SMILES,"viability at 28.5 h, 10 µM"
1,CC(=O)c1ccc(-c2nccnc2NCc2cccc([N+](=O)[O-])c2)s1 [CBK037509],106%
2,c1cc(CNc2nccnc2-c2ccsc2)ccn1 [CBK037513],103%
3,COc1ccc(-c2cc(C(=O)Nc3ccccn3)cnc2-c2ccccc2)cn1 [CBK037519],89.3%
4,CC(C)[C@H](CO)Nc1nc(-c2ccc(CCC(=O)O)cc2)cn2ccnc12 [CBK037522],92.7%
5,COc1ccc(-c2nc(NC(=O)Cc3ccc(S(C)(=O)=O)cc3)cnc2-c2cccc(C)c2)cc1 [CBK037525],88.2%
6,Oc1cccc(-c2cn3ccnc3c(NCc3ccccn3)n2)c1 [CBK037535],102%
7,Nc1cccc(-c2nccnc2NCc2cccs2)c1 [CBK037537],104%
8,CC(C)[C@@H](CO)Nc1nc(-c2cccnc2)cn2ccnc12 [CBK037539],94%
9,Nc1cccc(-c2nc(NC(=O)Cc3ccccc3)cnc2-c2ccc(F)cc2)c1 [CBK037550],91.3%
10,COc1ccc(-c2nc(NC(=O)Cc3ccccc3OC(F)(F)F)cnc2-c2cccc(C)c2)cc1 [CBK037551],107%
11,COc1ccc(-c2cc(C(=O)Nc3nccs3)cnc2-c2ccc(Cl)cc2)cc1 [CBK037553],87.4%
12,O=C(NCC(c1cccnc1)N1CCOCC1)c1cnc(-c2ccc(Cl)cc2)c(-c2ccco2)c1 (centres unmarked) [CBK037554],100%
13,CCNC(=O)c1cnc(-c2cccc(C(F)(F)F)c2)c(-c2cccc(CO)c2)c1 [CBK037557],94.7%
14,COc1ccc(-c2nc(NC(=O)c3ccc(S(N)(=O)=O)cc3)cnc2-c2cccc(C)c2)cc1 [CBK037559],103%
15,COc1ccc(-c2cc(C(=O)NCCc3ccc(N)cc3)cnc2-c2ccc(Cl)cc2)cc1 [CBK037561],91.6%
16,COc1ccc(-c2cc(C(=O)NCC(O)c3ccc4ccccc4c3)cnc2-c2ccccc2)cn1 (centres unmarked) [CBK037562],103%
17,O=C(O)c1cccc(NC(=O)c2cnc(-c3cccc(C(F)(F)F)c3)c(-c3cccc(CO)c3)c2)c1 [CBK037565],96%
18,O=C(Nc1cccnc1)c1cnc(-c2ccc(Cl)cc2)c(-c2cccnc2)c1 [CBK037568],102%
19,Cc1cccc(-c2ncc(NC(=O)COc3ccc4ccccc4c3)nc2-c2ccc(N(C)C)cc2)c1 [CBK037575],111%
20,COc1ccc2nc(NC(=O)c3cnc(-c4ccc(Cl)cc4)c(-c4cccnc4)c3)sc2c1 [CBK037576],105%
21,CN(C)c1ccc(CC(=O)Nc2cnc(-c3ccc(F)c(Cl)c3)c(-c3ccco3)n2)cc1 [CBK037581],97.9%
22,COc1ccc(-c2nc(NC(=O)Cc3ccc(N(C)C)cc3)cnc2-c2ccc(F)cc2)cn1 [CBK037582],97.9%

row,SMILES,"viability at 28.5 h, 10 µM"
1,CCNC(=O)c1cnc(-c2ccc(Cl)cc2)c(-c2cccnc2)c1 [CBK037584],103%
2,O=C(NCCS(=O)(=O)c1ccccc1)c1cnc(-c2ccc(Cl)cc2)c(-c2ccncc2)c1 [CBK037587],100%
3,N#Cc1ccccc1N1CCN(c2ccc(-c3ccccc3)cn2)CC1 [CBK037590],97.8%
4,COc1ccc(NC(=O)c2cnc(-c3cccc(C(F)(F)F)c3)c(-c3ccncc3)c2)cc1 [CBK037593],87.3%
5,Nc1ccc(-c2nc(NC(=O)c3cccs3)cnc2-c2ccc(F)cc2)cc1 [CBK037597],94.2%
6,CN1CCN(c2cccc(-c3ccccc3Oc3ccccc3)n2)CC1 [CBK037598],101%
7,COc1ncc(-c2cccc(N(C)CCN(C)C)n2)c(OC)n1 [CBK037599],99.1%
8,CC(C)CNc1ccc(-c2cccc(N(C)C)c2)cn1 [CBK037603],76.9%
9,O=C(NC(CN1CCOCC1)c1ccccc1)c1cnc(-c2ccc(Cl)cc2)c(-c2ccncc2)c1 (centres unmarked) [CBK037604],100%
10,O=C(NCc1ccc(Cl)cc1)c1cnc(-c2cccc(C(F)(F)F)c2)c(-c2ccncc2)c1 [CBK037607],84.8%
11,COc1cc(C)c(Nc2cccc(-c3ccc(O)cc3)n2)cc1OC [CBK037608],107%
12,CN(C)CCN1CCN(c2cccc(-c3ccc(-c4ccccc4)cc3)n2)CC1 [CBK037610],103%
13,CN1CCN(c2ccc(-c3cccc(N(C)C)c3)cn2)CC1 [CBK037621],102%
14,COC(=O)C(NC(=O)c1cnc(-c2cccc(C(F)(F)F)c2)c(-c2ccncc2)c1)c1ccccc1 (centres unmarked) [CBK037624],98.9%
15,c1cc(-c2nccnc2NCC2CCCCC2)ccn1 [CBK037627],99.4%
16,Fc1cccc(-c2nccnc2NCc2cccnc2)c1 [CBK037633],88.3%
17,c1cncc(CNc2nccnc2-c2ccoc2)c1 [CBK037635],96.4%
18,c1cncc(Nc2cccc(-c3cnc4ccccc4c3)n2)c1 [CBK037638],98.8%
19,CN1CCN(c2cccc(-c3ccc(CNC(=O)OC(C)(C)C)cc3)n2)CC1 [CBK037641],95.2%
20,COc1ccc(-c2cccc(Nc3cccnc3)n2)cc1OC [CBK037644],94.6%
21,Oc1cccc(-c2nccnc2NCc2ccc(Cl)cc2)c1 [CBK037650],92.8%
22,COc1cc(-c2nccnc2N[C@@H]2CCN(Cc3ccccc3)C2)cc(OC)c1OC [CBK037651],96.7%

row,SMILES,"viability at 28.5 h, 10 µM"
1,CCCCN(C)c1nccnc1-c1cccc(O)c1 [CBK037652],99%
2,COc1ccc(Nc2ccc(-c3ccc(C(=O)O)cc3)cn2)cc1 [CBK037654],95.2%
3,O=c1[nH]ccn1CCNc1ccc(-c2cccc3cccnc23)cn1 [CBK037658],79.2%
4,c1cncc(-c2ccc(N3CCN(CCN4CCCC4)CC3)nc2)c1 [CBK037661],108%
5,COc1ncc(-c2nccnc2NCc2ccc(F)cc2)c(OC)n1 [CBK037668],96.7%
6,CC(O)CNc1nccnc1-c1ccc(S(C)(=O)=O)cc1 (centres unmarked) [CBK037669],96.1%
7,COc1ccc(-c2cccc(N3CCN(CCN4CCCC4)CC3)n2)cc1OC [CBK037680],84.9%
8,COc1cccc(Nc2cc(-c3ccc(N4CCOCC4)cc3)ncn2)c1OC [CBK037687],94.7%
9,O=C(c1ccco1)N1CCN(c2cc(-c3ccsc3)ncn2)CC1 [CBK037690],100%
10,COc1cc(Nc2cccc(-c3cccc(NC(C)=O)c3)n2)cc(OC)c1OC [CBK037698],111%
11,CC(=O)Nc1cccc(-c2ccc(Nc3cccnc3)nc2)c1 [CBK037703],96.7%
12,COc1ncc(-c2cc(N3CCN(c4ccccn4)CC3)ncn2)c(OC)n1 [CBK037707],102%
13,COc1cc(C)c(Nc2cc(-c3ccc4c(c3)OCO4)ncn2)cc1OC [CBK037711],98.9%
14,COc1cc(Nc2cc(-c3cccc(N)c3)ncn2)cc(OC)c1OC [CBK037713],117%
15,COc1ncc(-c2ccc(NCCn3cc[nH]c3=O)nc2)c(OC)n1 [CBK037719],88.9%
16,COc1cncc(-c2ccc(N3CCN(CCN(C)C)CC3)nc2)c1 [CBK037720],88.9%
17,CN(C)c1cccc(-c2ccc(Nc3cccc(NC(=O)c4ccncc4)c3)nc2)c1 [CBK037721],58.7%
18,COc1ncc(-c2cccc(NCC(c3cccnc3)N(C)C)n2)c(OC)n1 (centres unmarked) [CBK037723],104%
19,COc1cc(C)c(Nc2cccc(/C=C/c3ccccc3)n2)cc1OC [CBK037725],102%
20,O=c1[nH]ccn1CCNc1cc(-c2cccc3oc4ccccc4c23)ncn1 [CBK037726],102%
